Tests used:
COX-1 = target: T1, COX-1 (Rattus norvegicus, UniProt Q63921); experiment: Anti-inflammatory assay, LPS-activated rat blood neutrophils, TXB2 ELISA (COX-1 marker); assay type: cell-based; settings: 3 hours
T1 construct: endogenous in cells
T1 sequence (Q63921 27-602): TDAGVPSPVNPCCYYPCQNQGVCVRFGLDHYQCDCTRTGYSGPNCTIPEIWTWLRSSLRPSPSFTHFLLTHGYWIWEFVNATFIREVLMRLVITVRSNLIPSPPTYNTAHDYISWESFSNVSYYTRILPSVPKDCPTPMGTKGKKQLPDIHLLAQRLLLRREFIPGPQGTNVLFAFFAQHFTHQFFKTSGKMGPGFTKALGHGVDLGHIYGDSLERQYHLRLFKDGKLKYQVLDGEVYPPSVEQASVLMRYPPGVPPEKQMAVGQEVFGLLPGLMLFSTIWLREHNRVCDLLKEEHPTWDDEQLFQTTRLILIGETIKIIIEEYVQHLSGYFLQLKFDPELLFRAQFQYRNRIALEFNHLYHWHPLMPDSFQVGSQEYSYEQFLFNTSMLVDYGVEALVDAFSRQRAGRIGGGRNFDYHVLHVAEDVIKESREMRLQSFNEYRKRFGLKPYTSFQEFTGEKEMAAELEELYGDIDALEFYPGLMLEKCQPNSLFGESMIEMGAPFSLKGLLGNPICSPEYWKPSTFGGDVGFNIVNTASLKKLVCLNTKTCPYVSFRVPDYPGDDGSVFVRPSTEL
Protocol: (§1) The proliferation of cancers can follow an inflammatory pathway. […] This study was performed using LPS-activated neutrophils from rat blood to determine the inhibition of the inflammatory mediators cyclooxygenase enzymes COX I and COX II.
(§2) Anti-inflammatory assays were carried out as follows. Neutrophils from rat blood were cultured in the presence of the test sample or positive control before being activated into an inflammatory response through the use of lipopolysaccharide (LPS). The incubation period before addition of LPS was 20 minutes. The cell culture supernatants were then tested by ELISA for the presence of the cyclooxygenase COX-1 and COX-2 marker compounds thromboxane TXB2 and prostaglandin PGE2, respectively. […] The test samples were used at 50 μg and 200 μg of solids/ml, and were tested in triplicate. The incubation period for TXB2 and PGE2 was 3 hours.

COX-2 = target: T2, COX-2 (Rattus norvegicus, UniProt P35355); experiment: Anti-inflammatory assay, LPS-activated rat blood neutrophils, PGE2 ELISA (COX-2 marker); assay type: cell-based; settings: 3 hours
T2 construct: endogenous in cells
T2 sequence (P35355 18-604): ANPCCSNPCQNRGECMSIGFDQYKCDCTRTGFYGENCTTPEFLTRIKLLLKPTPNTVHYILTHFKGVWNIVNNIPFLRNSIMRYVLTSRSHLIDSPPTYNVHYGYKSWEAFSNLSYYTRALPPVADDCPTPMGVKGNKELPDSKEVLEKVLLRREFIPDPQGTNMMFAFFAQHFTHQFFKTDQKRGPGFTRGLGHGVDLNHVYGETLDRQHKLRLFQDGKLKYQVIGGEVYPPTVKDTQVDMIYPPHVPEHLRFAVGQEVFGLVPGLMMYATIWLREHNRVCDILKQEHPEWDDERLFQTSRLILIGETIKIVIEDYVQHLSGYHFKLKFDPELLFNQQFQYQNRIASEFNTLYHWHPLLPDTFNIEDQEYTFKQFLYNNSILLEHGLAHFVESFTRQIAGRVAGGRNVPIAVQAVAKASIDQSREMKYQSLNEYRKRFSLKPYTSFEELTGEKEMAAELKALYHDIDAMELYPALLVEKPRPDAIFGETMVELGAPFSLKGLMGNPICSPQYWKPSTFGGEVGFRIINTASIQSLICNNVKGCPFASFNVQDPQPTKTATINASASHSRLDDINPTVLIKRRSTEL
Protocol: as §1, §2

Compound: OC[C@H]1O[C@@H]2O[C@H]3[C@H](O)[C@@H](O)[C@@H](O[C@H]4[C@H](O)[C@@H](O)[C@@H](O[C@H]5[C@H](O)[C@@H](O)[C@@H](O[C@H]6[C@H](O)[C@@H](O)[C@@H](O[C@H]7[C@H](O)[C@@H](O)[C@@H](O[C@H]8[C@H](O)[C@@H](O)[C@@H](O[C@H]9[C@H](O)[C@@H](O)[C@@H](O[C@H]1[C@H](O)[C@H]2O)O[C@@H]9CO)O[C@@H]8CO)O[C@@H]7CO)O[C@@H]6CO)O[C@@H]5CO)O[C@@H]4CO)O[C@@H]3CO [IFS#11, Gamma cyclodextrin]
- COX (I), 50 μg/ml (COX-1; 50 μg of solids/ml): S, NS
- COX (I), 200 μg/ml (COX-1; 200 μg of solids/ml): 2.3, NS
- COX (II), 50 μg/ml (COX-2; 50 μg of solids/ml): 10.1, NS
- COX (II), 200 μg/ml (COX-2; 200 μg of solids/ml): S, NS
